Laboratory results from ChEMBL document CHEMBL2086238, “Identification of ETP-46321, a potent and orally bioavailable PI3K α, δ inhibitor” (Bioorg Med Chem Lett, 2012).
pIC50, pKi: −log10 of the molar value.

Assays:
[1] = target: RAC-alpha serine/threonine-protein kinase (Homo sapiens) (UniProt P31749); assay: Inhibition of AKT1 at 1 uM
[2] = target: T1, NUAK family SNF1-like kinase 1 (Homo sapiens) (UniProt O60285); assay: Inhibition of ARK5 at 1 uM
T1 sequence (whole entry): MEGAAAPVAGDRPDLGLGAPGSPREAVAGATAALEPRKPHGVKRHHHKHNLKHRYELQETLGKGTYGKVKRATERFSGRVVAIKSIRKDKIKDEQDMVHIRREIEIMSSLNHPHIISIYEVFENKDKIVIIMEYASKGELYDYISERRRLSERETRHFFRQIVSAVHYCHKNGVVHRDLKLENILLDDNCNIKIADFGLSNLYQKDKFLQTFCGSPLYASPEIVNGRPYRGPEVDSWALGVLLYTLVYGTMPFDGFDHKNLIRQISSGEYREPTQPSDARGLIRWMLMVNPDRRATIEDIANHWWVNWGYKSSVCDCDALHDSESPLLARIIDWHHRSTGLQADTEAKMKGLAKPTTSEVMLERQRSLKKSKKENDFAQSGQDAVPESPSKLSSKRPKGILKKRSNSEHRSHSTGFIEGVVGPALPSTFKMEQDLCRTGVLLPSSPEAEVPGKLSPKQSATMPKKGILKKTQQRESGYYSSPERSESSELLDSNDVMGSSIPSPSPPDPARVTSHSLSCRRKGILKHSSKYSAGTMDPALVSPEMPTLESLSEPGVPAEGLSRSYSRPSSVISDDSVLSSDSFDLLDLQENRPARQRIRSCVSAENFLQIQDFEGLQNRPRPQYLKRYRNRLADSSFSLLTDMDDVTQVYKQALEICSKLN

[3] = target: Casein kinase I isoform alpha (Homo sapiens) (UniProt P48729); assay: Inhibition of CK1alpha1 at 1 uM
Casein kinase I isoform alpha (Homo sapiens), sequence (P48729 2-337 limits assumed): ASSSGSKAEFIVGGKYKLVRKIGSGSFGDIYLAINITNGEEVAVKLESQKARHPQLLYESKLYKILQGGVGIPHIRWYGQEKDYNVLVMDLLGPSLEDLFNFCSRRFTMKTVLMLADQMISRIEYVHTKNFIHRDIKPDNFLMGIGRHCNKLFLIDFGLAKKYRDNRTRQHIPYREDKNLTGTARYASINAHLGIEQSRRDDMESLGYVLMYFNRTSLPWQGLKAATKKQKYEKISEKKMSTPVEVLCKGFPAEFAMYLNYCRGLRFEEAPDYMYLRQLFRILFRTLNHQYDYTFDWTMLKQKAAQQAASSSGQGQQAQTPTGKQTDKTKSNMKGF

[4] = target: Epidermal growth factor receptor (Homo sapiens) (UniProt P00533); assay: Inhibition of EGFR at 1 uM
[5] = target: Fibroblast growth factor receptor 1 (Homo sapiens) (UniProt P11362); assay: Inhibition of FGFR1 at 1 uM
[6] = target: Receptor-type tyrosine-protein kinase FLT3 (Homo sapiens) (UniProt P36888); assay: Inhibition of FLT3 at 1 uM
Receptor-type tyrosine-protein kinase FLT3 (Homo sapiens), sequence (P36888 whole entry): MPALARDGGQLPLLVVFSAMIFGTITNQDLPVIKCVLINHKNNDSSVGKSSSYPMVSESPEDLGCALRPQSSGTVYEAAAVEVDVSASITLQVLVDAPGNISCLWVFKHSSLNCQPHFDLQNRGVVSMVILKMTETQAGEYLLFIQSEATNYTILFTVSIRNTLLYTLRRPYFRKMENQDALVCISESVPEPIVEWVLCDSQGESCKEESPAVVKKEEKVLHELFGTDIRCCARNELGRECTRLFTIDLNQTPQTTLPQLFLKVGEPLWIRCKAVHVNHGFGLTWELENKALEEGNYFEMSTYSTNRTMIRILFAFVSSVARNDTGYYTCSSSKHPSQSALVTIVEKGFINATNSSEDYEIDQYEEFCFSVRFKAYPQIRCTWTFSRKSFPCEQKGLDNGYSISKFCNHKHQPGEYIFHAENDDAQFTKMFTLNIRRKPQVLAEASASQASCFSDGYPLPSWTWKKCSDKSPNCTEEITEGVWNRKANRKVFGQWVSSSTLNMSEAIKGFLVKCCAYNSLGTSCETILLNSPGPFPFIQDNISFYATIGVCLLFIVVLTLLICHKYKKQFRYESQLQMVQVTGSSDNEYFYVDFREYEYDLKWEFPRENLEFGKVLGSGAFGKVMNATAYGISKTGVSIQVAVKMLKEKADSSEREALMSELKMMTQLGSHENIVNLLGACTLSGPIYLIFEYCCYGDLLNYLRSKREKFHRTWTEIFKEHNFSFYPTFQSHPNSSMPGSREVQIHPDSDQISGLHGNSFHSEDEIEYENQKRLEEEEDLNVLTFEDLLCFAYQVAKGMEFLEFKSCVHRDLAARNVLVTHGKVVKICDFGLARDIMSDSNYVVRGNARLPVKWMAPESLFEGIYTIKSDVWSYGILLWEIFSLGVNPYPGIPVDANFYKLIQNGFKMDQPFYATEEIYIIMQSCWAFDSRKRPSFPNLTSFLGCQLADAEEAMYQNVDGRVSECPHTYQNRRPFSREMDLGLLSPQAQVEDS

[7] = target: Insulin-like growth factor 1 receptor (Homo sapiens) (UniProt P08069); assay: Inhibition of IGF1R at 1 uM
[8] = target: Tyrosine-protein kinase JAK2 (Homo sapiens) (UniProt O60674); assay: Inhibition of JAK2 at 1 uM
[9] = target: Hepatocyte growth factor receptor (Homo sapiens) (UniProt P08581); assay: Inhibition of MET at 1 uM
[10] = target: RAC-alpha serine/threonine-protein kinase (Homo sapiens) (UniProt P31749); assay: Inhibition of AKT1 at 5 uM
[11] = target: Casein kinase I isoform alpha (Homo sapiens) (UniProt P48729); assay: Inhibition of CK1alpha1 at 5 uM
[12] = target: Epidermal growth factor receptor (Homo sapiens) (UniProt P00533); assay: Inhibition of EGFR at 5 uM
[13] = target: Focal adhesion kinase 1 (Homo sapiens) (UniProt Q05397); assay: Inhibition of FAK at 5 uM
[14] = target: Fibroblast growth factor receptor 1 (Homo sapiens) (UniProt P11362); assay: Inhibition of FGFR1 at 5 uM
[15] = target: Receptor-type tyrosine-protein kinase FLT3 (Homo sapiens) (UniProt P36888); assay: Inhibition of FLT3 at 5 uM
[16] = target: Insulin-like growth factor 1 receptor (Homo sapiens) (UniProt P08069); assay: Inhibition of IGF1R at 5 uM
[17] = target: T2, Inhibitor of nuclear factor kappa-B kinase subunit beta (Homo sapiens) (UniProt O14920); assay: Inhibition of IKKbeta at 5 uM
T2 sequence (whole entry): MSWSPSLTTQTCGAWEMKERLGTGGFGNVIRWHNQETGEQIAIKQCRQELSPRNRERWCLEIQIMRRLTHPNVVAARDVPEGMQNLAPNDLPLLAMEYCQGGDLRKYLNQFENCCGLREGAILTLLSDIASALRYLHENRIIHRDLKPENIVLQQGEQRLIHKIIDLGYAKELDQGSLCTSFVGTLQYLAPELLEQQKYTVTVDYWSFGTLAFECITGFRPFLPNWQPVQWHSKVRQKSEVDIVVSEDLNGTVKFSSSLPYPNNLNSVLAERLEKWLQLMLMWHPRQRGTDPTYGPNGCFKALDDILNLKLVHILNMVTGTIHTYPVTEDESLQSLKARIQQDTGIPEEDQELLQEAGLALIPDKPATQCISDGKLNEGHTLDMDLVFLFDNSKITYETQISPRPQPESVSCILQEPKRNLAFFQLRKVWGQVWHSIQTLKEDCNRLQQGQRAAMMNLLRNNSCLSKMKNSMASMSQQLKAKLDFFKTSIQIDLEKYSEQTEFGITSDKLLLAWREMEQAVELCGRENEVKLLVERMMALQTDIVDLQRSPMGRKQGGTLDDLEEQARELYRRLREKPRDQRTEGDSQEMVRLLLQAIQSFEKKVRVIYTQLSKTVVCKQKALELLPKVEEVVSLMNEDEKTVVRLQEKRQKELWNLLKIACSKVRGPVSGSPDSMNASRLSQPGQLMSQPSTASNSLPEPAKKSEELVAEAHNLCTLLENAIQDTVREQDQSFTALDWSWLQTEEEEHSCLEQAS

[18] = target: Tyrosine-protein kinase JAK2 (Homo sapiens) (UniProt O60674); assay: Inhibition of JAK2 at 5 uM
[19] = target: Dual specificity mitogen-activated protein kinase kinase 1 (Homo sapiens) (UniProt Q02750); assay: Inhibition of MEK1 at 5 uM
Dual specificity mitogen-activated protein kinase kinase 1 (Homo sapiens), sequence (Q02750 whole entry): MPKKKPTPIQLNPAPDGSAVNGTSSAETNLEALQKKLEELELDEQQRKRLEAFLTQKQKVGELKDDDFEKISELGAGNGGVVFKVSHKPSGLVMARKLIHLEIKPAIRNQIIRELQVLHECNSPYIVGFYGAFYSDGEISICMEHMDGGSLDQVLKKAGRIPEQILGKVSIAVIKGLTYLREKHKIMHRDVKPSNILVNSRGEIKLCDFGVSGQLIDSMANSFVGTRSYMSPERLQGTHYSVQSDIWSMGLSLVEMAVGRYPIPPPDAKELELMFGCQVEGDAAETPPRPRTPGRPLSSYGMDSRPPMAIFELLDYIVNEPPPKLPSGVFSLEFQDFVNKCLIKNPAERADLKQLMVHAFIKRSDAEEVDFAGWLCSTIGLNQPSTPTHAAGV

[20] = target: T3, Serine/threonine-protein kinase Sgk1 (Homo sapiens) (UniProt O00141); assay: Inhibition of SGK1 at 5 uM
T3 sequence (whole entry): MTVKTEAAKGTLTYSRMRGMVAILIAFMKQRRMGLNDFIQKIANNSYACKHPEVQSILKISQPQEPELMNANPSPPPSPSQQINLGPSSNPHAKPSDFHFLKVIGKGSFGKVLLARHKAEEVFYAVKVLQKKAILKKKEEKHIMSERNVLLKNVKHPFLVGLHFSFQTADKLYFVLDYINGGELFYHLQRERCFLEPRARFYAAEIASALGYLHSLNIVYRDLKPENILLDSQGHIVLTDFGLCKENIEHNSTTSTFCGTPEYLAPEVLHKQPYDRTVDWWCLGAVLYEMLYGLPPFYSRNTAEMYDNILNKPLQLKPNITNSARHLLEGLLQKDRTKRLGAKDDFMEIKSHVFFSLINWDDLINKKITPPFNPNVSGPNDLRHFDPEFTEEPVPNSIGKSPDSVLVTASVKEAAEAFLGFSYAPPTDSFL

[21] = target: PI3-kinase p110-alpha/p85-alpha (Homo sapiens, UniProt P42336); assay: Inhibition of human PI3Kalpha (p110alpha/p85alpha) by ADP accumulation based HTRF assay; assay type: protein-complex assay; conditions: for pKi: read-out: Ki(app)
PI3-kinase p110-alpha/p85-alpha, sequence (P27986 whole entry): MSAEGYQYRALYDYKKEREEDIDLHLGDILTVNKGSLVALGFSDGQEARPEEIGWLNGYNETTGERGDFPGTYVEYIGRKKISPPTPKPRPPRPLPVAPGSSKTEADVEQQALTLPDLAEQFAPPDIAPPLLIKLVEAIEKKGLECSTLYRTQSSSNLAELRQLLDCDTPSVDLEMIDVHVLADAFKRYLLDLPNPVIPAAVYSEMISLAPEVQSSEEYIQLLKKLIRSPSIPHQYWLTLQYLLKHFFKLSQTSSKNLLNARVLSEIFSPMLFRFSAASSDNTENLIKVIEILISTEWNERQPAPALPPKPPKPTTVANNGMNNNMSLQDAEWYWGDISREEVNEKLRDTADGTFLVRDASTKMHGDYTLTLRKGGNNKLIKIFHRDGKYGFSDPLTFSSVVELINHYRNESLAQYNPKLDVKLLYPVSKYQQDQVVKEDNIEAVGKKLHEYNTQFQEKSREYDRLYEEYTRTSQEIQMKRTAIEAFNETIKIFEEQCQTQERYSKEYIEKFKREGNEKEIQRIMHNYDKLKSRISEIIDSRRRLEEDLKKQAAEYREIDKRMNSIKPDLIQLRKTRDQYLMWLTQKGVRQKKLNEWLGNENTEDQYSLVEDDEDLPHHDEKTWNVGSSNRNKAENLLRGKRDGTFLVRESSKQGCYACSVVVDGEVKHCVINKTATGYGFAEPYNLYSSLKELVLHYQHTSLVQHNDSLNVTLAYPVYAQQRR
PI3-kinase p110-alpha/p85-alpha, sequence (P42336 whole entry): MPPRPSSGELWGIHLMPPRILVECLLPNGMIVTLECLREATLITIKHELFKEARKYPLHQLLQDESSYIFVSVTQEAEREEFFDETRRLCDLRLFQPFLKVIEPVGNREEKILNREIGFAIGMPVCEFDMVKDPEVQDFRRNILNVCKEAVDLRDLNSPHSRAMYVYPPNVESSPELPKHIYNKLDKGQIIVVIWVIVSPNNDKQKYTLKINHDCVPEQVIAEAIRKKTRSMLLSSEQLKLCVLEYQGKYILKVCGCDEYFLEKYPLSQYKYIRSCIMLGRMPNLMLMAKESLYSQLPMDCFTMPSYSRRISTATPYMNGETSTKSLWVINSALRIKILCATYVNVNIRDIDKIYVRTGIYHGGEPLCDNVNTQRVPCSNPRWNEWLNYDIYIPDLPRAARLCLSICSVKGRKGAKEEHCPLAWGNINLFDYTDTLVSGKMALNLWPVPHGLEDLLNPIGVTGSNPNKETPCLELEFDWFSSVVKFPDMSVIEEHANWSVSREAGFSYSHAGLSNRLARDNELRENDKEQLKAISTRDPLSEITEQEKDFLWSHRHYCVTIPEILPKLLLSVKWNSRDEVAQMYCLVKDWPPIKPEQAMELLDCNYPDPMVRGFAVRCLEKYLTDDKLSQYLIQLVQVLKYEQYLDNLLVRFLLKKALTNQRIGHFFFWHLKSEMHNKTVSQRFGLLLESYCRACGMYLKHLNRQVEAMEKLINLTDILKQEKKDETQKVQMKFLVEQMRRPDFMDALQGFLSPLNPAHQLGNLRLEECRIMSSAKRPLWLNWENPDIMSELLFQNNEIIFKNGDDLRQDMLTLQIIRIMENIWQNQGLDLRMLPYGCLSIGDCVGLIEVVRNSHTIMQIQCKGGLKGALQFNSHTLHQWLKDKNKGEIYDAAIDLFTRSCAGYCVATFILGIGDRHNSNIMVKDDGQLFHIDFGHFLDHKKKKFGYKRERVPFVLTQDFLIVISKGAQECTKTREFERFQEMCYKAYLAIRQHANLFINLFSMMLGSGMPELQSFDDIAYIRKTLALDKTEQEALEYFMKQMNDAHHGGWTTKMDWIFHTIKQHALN

[22] = Stability in human liver microsomes at 1 uM incubated for 15 mins; assay type: ADME, Microsome; conditions: read-out: Stability
[23] = target: CYP2C9 (Homo sapiens, UniProt P11712); assay: Inhibition of CYP2C9 at 10 uM; assay type: ADME
CYP2C9, sequence (P11712 whole entry): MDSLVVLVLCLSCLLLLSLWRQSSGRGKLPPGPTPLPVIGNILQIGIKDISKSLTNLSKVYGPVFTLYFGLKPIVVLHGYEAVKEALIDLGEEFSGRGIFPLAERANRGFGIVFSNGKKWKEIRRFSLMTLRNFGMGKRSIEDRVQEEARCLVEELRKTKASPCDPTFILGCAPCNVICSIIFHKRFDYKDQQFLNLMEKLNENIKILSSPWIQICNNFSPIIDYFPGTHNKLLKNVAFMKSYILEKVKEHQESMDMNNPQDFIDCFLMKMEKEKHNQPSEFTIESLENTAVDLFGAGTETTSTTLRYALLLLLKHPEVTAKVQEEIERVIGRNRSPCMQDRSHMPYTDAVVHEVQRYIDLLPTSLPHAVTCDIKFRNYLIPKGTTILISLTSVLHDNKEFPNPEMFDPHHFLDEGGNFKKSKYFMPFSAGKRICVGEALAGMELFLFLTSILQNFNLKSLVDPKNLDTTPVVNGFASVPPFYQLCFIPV

RAC-alpha serine/threonine-protein kinase (Homo sapiens), sequence (P31749 whole entry, canonical isoform): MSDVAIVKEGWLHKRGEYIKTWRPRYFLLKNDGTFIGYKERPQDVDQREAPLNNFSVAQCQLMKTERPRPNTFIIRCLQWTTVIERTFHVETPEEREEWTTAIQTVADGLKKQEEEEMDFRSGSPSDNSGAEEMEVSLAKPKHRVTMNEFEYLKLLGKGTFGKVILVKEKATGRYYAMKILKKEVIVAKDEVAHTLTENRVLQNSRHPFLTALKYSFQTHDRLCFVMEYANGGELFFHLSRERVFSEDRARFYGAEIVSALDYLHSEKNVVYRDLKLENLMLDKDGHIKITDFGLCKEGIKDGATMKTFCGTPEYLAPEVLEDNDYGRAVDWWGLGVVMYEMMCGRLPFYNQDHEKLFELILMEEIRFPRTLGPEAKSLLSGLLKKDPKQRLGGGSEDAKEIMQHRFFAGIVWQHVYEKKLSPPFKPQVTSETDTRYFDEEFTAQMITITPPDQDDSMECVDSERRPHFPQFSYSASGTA

Structure (SMILES) | inhibition [1] | inhibition [2] | inhibition [3] | inhibition [4] | inhibition [5] | inhibition [6] | inhibition [7] | inhibition [8] | inhibition [9] | inhibition [10] | inhibition [11] | inhibition [12] | inhibition [13] | inhibition [14] | inhibition [15] | inhibition [16] | inhibition [17] | inhibition [18] | inhibition [19] | inhibition [20] | other results
Cc1nc(N)ncc1-c1cn2cc(CN3CCN(S(C)(=O)=O)CC3)nc2c(N2CCOCC2)n1 | < 30% | < 30% | < 30% | < 30% | < 30% | < 30% | < 30% | < 30% | < 30% | < 30% | < 30% | < 30% | < 30% | < 30% | < 30% | < 30% | < 30% | < 30% | < 30% | < 30% | 
CS(=O)(=O)N1CCN(Cc2cn3c(Cl)c(-c4cnc(N)nc4)nc(N4CCOCC4)c3n2)CC1 | < 30% | < 30% | < 30% | < 30% | < 30% | < 30% | < 30% | < 30% | < 30% | < 30% | < 30% | < 30% | < 30% | < 30% | < 30% | < 30% | < 30% | < 30% | < 30% | < 30% | pKi [21]: 8.62; remaining at 0.25 h, 1 µM [22]: 86%; inhibition at 10 µM [23]: < 30%

Continued, in another order:

inhibition [1] | inhibition [2] | inhibition [3] | inhibition [4] | inhibition [5] | inhibition [6] | inhibition [7] | inhibition [8] | inhibition [9] | inhibition [10] | inhibition [11] | inhibition [12] | inhibition [13] | inhibition [14] | inhibition [15] | inhibition [16] | inhibition [17] | inhibition [18] | inhibition [19] | inhibition [20] | Structure (SMILES) | other results
< 30% | < 30% | < 30% | < 30% | < 30% | < 30% | < 30% | < 30% | < 30% | < 30% | < 30% | < 30% | < 30% | < 30% | < 30% | < 30% | < 30% | < 30% | < 30% | < 30% | CS(=O)(=O)N1CCN(Cc2nc3c(N4CCOCC4)nc(-c4cnc(N)nc4)cn3c2Br)CC1 | pIC50 [21]: 9.15; remaining at 0.25 h, 1 µM [22]: 70%; inhibition at 10 µM [23]: < 30%
< 30% | < 30% | < 30% | < 30% | < 30% | < 30% | < 30% | < 30% | < 30% | < 30% | < 30% | < 30% | < 30% | < 30% | < 30% | < 30% | < 30% | < 30% | < 30% | < 30% | Cc1c(CN2CCN(S(C)(=O)=O)CC2)nc2c(N3CCOCC3)nc(-c3cnc(N)nc3)cn12 | pIC50 [21]: 8.00; pKi [21]: 8.00; remaining at 0.25 h, 1 µM [22]: 88%; inhibition at 10 µM [23]: < 30%
< 30% | < 30% | < 30% | < 30% | < 30% | < 30% | < 30% | < 30% | < 30% | < 30% | < 30% | < 30% | < 30% | < 30% | < 30% | < 30% | < 30% | < 30% | < 30% | < 30% | CS(=O)(=O)N1CCN(Cc2cn3cc(-c4cnc(N)nc4)nc(N4CCOCC4)c3n2)CC1 | remaining at 0.25 h, 1 µM [22]: 93%; inhibition at 10 µM [23]: < 30%
